Assays:
AICD = AICD by Western blot in SY5Y-APP695WT cells; format: cell-based, human; conditions: AICD increase compared to chloroquine ([AICD]compound/[AICD]CQ) at 3 μM; mean of at least three experiments
Text: Antibodies. Primary antibodies used in this study for western-blot analysis included a homemade rabbit antiserum against the last 17 amino acids of human APP protein sequence, named APP-Cter-C17 (1/5000 in TBS-M). Anti-β-actin (1/10 000 in TBS-M) was obtained from Sigma. Anti-LC3B (1/2000 in TBS-BSA) and anti-p62/SQSTM1 (1/2000 in TBS-M) antibodies were purchased from Cell Signaling Technology. Secondary antibodies (peroxidase-labeled goat anti-rabbit IgG, 1/5000 or peroxidase-labeled horse anti-mouse IgG, 1/50000 in TBS-T) were obtained from Vector Laboratories.
Cell culture and treatment. The human neuroblastoma cell line SY5Y-APP^695WT was maintained in Dulbecco's modified Eagle medium (DMEM, high glucose, pyruvate—GIBCO by Life Technologies) supplemented with 10% foetal bovine serum, 2 mM L-glutamine, 1 mM non-essential amino acids and penicillin/streptomycin (GIBCO by Life Technologies) at 37° C. in a 5% CO2 humidified incubator. SY5Y-APP^695WT cells were maintained in 75 cm^2 culture flasks (Falcon) with supplemented DMEM medium until they reached 80% of confluence 24 h before treatment.
For drug treatment, cells were plated at a rate of 5·10^5 cells per well into 12-well plates (Falcon) and cultured with 1 mL supplemented DMEM cell medium for 24 h before drug exposure. The following day, cell medium was replaced with fresh medium containing drugs diluted at the indicated concentrations. Cells were treated for 24 h. At the end of treatments, the cell medium was collected and kept at −80° C. until use for dosage. Then, cells were rinsed once with PBS and extracted in 100 μL of Laemmli buffer (10 mM Tris, 20% glycerol and 2% Sodium dodecyl sulfate) using a cell-scraper. The cell lysate was further sonicated (30 pulses of 0.5 s, 60 Hz) for 5 min. Total protein concentration was determined using the Pierce BCA Protein Assay Kit (Thermo scientific) according to the manufacturer's instructions. Samples were stored at −80° C. until analysis.
Western Blot Analysis. Cell protein lysates were prepared for western-blot analysis by diluting the sample with 1 volume of NuPAGE® lithium dodecyl sulfate (LDS) 2× sample buffer supplemented with 20% NuPAGE® sample reducing agents (Invitrogen). Samples were heat 10 min at 100° C. 10 μg of total proteins per well were loaded onto a precast 4-12% Criterion XT Bis-Tris polyacrylamide gel (Bio-Rad) and electrophoresis was achieved after applying a tension of 150 V during 90 min using a Criterion electrophoresis Cell with the NuPAGE® MOPS SDS running buffer (1×). Proteins were transferred to a nitrocellulose membrane of […] pore size (G&E Healthcare) using the Criterion blotting system and applying a tension of 100 V for 45 min. To resolve proteins of low molecular weights such as carboxy-terminal fragments of APP, 12% Criterion XT Bis-Tris polyacrylamide gels (Bio-Rad) were used and electrophoresis was performed during 70 min at 150 V in a NuPAGE® MES SDS running buffer (1×). Proteins were transferred to a nitrocellulose membrane of 0.2 μm pore size (G&E Healthcare) at 100 V for 40 min. Molecular weights calibration was achieved using molecular weight markers (Novex and Magic Marks, Life Technologies). Protein transfer and quality were determined by a reversible Ponceau Red coloration (0.2% Xylidine Ponceau Red and 3% Trichloroacetic acid). Membranes were then blocked in 25 mM Tris-HCl pH 8.0, 150 mM NaCl, 0.1% Tween-20 (v/v) (TBS-T) and 5% (w/v) of skimmed milk (TBS-M) or 5% (w/v) of bovine serum albumin (TBS-BSA) depending on the antibody during 1 h. Membrane was rinsed three-times 10 min in TBS-T before incubation with the primary antibody overnight at 4° C. Membrane was rinsed 3 times 10 min with TBS-T and then incubated with the secondary antibody for 45 min at room temperature (RT). […] Quantifications of protein expression levels were performed with ImageJ Software (NIH). […]

Tau = Tau phosphorylation by Western-blotting in hippocampus and cortex of ThyTau22 mice; format: in vivo; conditions: one month treatment; for phosphorylation of Tau (overall): hippocampus and cortex
Protocol: Thy-Tau22 transgenic colonies (C57Bl/6J genetic background) were obtained by crossing heterozygous males C57Bl/6J with WT females. All animals were housed in a pathogen-free facility at 5 to 6 animals per cage (Techniplast Cages 1284L), with ad libitum access to food and water in a 12/12-hour light-dark cycle and maintained under a constant temperature of 22° C. For treatment, animals were randomly distributed and compound 30 or 31 was provided in the drinking water at a final concentration of 1 mg/kg, ie […] for drinking solutions taking into account an average weight of 25 g/mouse drinking 4 mL/day. […] Food consumption and bodyweight were also assessed. In WT animals, a pilot study of drug treatment was performed for one month to establish the innocuousness of compound 30 and 31 treatments. Thy-Tau22 females were treated for 1 months, starting at 6 months of age.
Hyperphosphorylation and phosphorylation levels of Tau. Tau expression, phosphorylation and hyperphosphorylation in the hippocampus and in the cortex were investigated by Western-blotting (FIGS. 5 and 6). The mice were euthanized by beheading and their brain was dissected and was put for few seconds in an isopropanol solution for post-mortem conservation. The samples were sonicated with a Tris-Sucrose Buffer during 30s and were prepared for Western-blot analysis by adding 1 volume of NuPage NuPAGER©LDS 2× sample buffer supplemented with 20% NuPAGER© sample reducing agents (Invitrogen). Samples were heated 10 min at 70° C. 8 μg of proteins per well were loaded onto precast 12% Criterion XT Bis-Tris polyacrylamide 26 wells gels (Bio-Rad) and electrophoresis was achieved by applying a tension of 200V during 60 min using a Criterion electrophoresis Cell with the NuPAGER©MOPS SDS running buffer (1×). Proteins were transferred to a nitrocellulose membrane of […] pore size (G&E Healthcare) using the Criterion blotting system by applying a tension of 100 V for 40 min. Molecular weights calibration was achieved using molecular weight markers (Novex and Magic Marks, Life Technologies). Protein transfer and quality were determined by a reversible Ponceau Red coloration (0.2% Xylidine Ponceau Red and 3% Trichloroacetic acid). Membranes were then blocked in 25 mM Tris-HCl pH 8.0, 150 mM NaCl, 0.1% Tween-20 (v/v) (TBS-T) and 5% (w/v) of skimmed milk (TBS-M) or 5% (w/v) of bovine serum albumin (TBS-BSA) depending on the antibody during 1 hour. […] Quantifications of protein expression levels were performed with ImageQuantTL Software. The results obtained with the quantification of the treated samples were divided by the results obtained with the quantification of the housekeeping gene (GAPDH) in order to check if the amount of proteins was homogeneous in each well. […]

CN(C)Cc1ccccc1-c1ccc(NCCCN2CCCCC2)c(OCCN2CCCCC2)c1 [Compound 30, 4-(2-[(Dimethylamino)methyl]phenyl)-2-[2-(piperidin-1-yl)ethoxy]-N-[3-(piperidin-1-yl)propyl]aniline]
AICD vs CQ (3 μM) (AICD): 3.6
phosphorylation of Tau (overall) (Tau): showed less effect on Tau phosphorylation

CN(C)Cc1ccccc1-c1ccc(NCCCN2CCCCC2)c(OCCC2CCCCC2)c1 [Compound 31, 3-(2-cyclohexylethoxy)-2′-((dimethylamino)methyl)-N-(3-(piperidin-1-yl)propyl)-[1,1′-biphenyl]-4-amine]
AICD vs CQ (3 μM) (AICD): 0.1
Tau phosphorylation sites in the cortex (Tau; Western-blot): decreased significantly the p422, AT100, p396 and p262 phosphorylation sites
Tau phosphorylation sites in the hippocampus (Tau; Western-blot): p422 and p262 phosphorylation sites were also significantly reduced
phosphorylation of Tau (overall) (Tau): decreased the phosphorylation of Tau in the hippocampus and in the cortex
